Measurements: patent US20220251080A1, “SUBSTANTIALLY PURE VENETOCLAX AND AMORPHOUS VENETOCLAX IN A FREE DRUG PARTICULAT E FORM” (DR. REDDY'S LABORATORIES LIMITED, priority 2019, published 2022)

How the values were obtained:
[1] = Filtration characteristics (specific cake resistance); format: physicochemical; conditions: filtration of the suspension from the process
Description: (§1) As per the flow property measurement, powder obtained by reactive agglomeration has better flow indices (Carr's index and Hausner ratio) than powder obtained by solvent-antisolvent process, disclosed in example 24 of WO2017212431.
The term “specific cake resistance” as used herein refers to filter cake is formed by the substances that are retained on a filter. The filter cake grows in the course of filtration, becoming thicker as particulate matter is retained. With increasing layer thickness, the flow resistance of the filter cake increases. Specific cake resistance is a measure of this resistance offered by cake towards the flow.

[2] = Flow property measurement of powder (bulk density, tapped density, Hausner ratio, Carr's index); format: physicochemical; conditions: for Carr's index: (tapped density-bulk density)/tapped density×100; for Tapped density: after mechanical tapping; for Hausner ratio: calculated from bulk and tapped density; for Bulk density: untapped powder sample
Description: as §1
The term “bulk density” as used herein refers to the ratio of the mass to the volume (including the interparticulate void volume) of an untapped powder sample.
The term “tapped density” as used herein and it is obtained by mechanically tapping a graduated cylinder containing the sample until little further volume change is observed.
The tapping can be performed using different methods. The tapped density is calculated as mass divided by the final volume of the powder.
The term “carr's index” as used herein and it is calculated using below formula Carr Index =(tapped density-bulk density)/tapped density×100.
The term “hausner ratio” as used herein and it is calculated using below formula Hausner Ratio […]

Row | SMILES | Specific cake resistance [1] | Carr's index [2] | Tapped density [2] | Hausner ratio [2] | Bulk density [2]
1 | CC1(C)CCC(CN2CCN(c3ccc(C(=O)NS(=O)(=O)c4ccc(NCC5CCOCC5)c([N+](=O)[O-])c4)c(Oc4cnc5[nH]ccc5c4)c3)CC2)=C(c2ccc(Cl)cc2)C1 [Amorphous venetoclax obtained by Solvent-Anti solvent Proces] [4-(4-{[2-(4-chlorophenyl)-4,4dimethylcyclohex-1-en-1-yl]methyl}piperazin-1-yl)-N-({3-nitro-4-[(tetrahydro-2H-pyran-4ylmethyl)amino]phenyl}sulfonyl)-2-(1H-pyrrolo[2,3-1)]pyridin-5-yloxy)benzamide)] | Filter media clogged | 29.8 | 0.289 g/mL | 1.4 | 0.203 g/mL
2 | CC1(C)CCC(CN2CCN(c3ccc(C(=O)NS(=O)(=O)c4ccc(NCC5CCOCC5)c([N+](=O)[O-])c4)c(Oc4cnc5[nH]ccc5c4)c3)CC2)=C(c2ccc(Cl)cc2)C1 [Amorphous venetoclax obtained by reactive agglomeration proc] [4-(4-{[2-(4-chlorophenyl)-4,4dimethylcyclohex-1-en-1-yl]methyl}piperazin-1-yl)-N-({3-nitro-4-[(tetrahydro-2H-pyran-4ylmethyl)amino]phenyl}sulfonyl)-2-(1H-pyrrolo[2,3-1)]pyridin-5-yloxy)benzamide)] | 2.73E+10 m/Kg | 25.8 | 0.442 g/mL | 1.3 | 0.328 g/mL
